Experimental data published in patent publication US20110097310A1, “ANTI-AGING OR ANTIOXIDANT COMPOSITION CONTAINING PLANT STEM CELL LINE DERIVED FROM CAMBIUM OF PANAX GINSENG” (UNHWA CORPORATION, priority 2008, published 2011).

Tested on: MMP-1
Assay: Inhibition of MMP-1 expression caused by UVB radiation in NHF cells
Type: cell-based, human
Conditions: NHF(p6), 40 mJ UVB, 48 hours, 10 uM positive control; Control UV = 230
Description: When MMPs are increased due to exposure to UV radiation, the increased MMPs will degrade skin collagen to form skin wrinkles. Thus, in order to examine whether MMP-1 expression that increased due to UV radiation is inhibited by the extract or culture medium of the wild ginseng cambium-derived homogeneous cell line, the following test was carried out.
NHF(p6) cells were dispensed in a 12-well plate at a density of 75,000 cells/well and starved for 24 hours. Then, the cells were radiated with 40 mJ of UVB and treated with varying concentrations of each of the samples for 48 hours. Then, an experiment was carried out using a kit (Amersham, RPN 2610). As a positive control, 10 μM retinoic acid was used.

For `CC1=C(/C=C/C(C)=C/C=C/C(C)=C/C(=O)O)C(C)(C)CCC1` [Retinoic acid, retinoic acid], the “MMP-1 expression, % of control (No UV = 100)” value was 85 % of control.
